{"source": "paper PMC4043931", "about": "(Chembiochem : a European journal of chemical biology, 2014)", "origin": "cited, not measured here", "details_in_all_cases": "listed for comparison; ref [7i], [10]", "key": {"[1]": {"tested_on": "Klebsiella. pneumoniae (ATCC 13383)"}, "[2]": {"tested_on": "Pseudomonas aeruginosa (ATCC 27853)"}, "[3]": {"tested_on": "Methicillin-resistant Staphylococcus epidermidis (RP62A)"}, "[4]": {"tested_on": "Vancomycin-resistant Enterococcus faecalis (ATCC 700802)"}, "[5]": {"tested_on": "Methicillin-resistant Staphylococcus aureus (ATCC 33591)"}, "[6]": {"tested_on": "human red blood cells (hRBC's)"}}, "data": [{"substance": "Pexiganan", "values": [{"measurement": "MIC K. pneumoniae", "setting": "[1]", "value": 8, "unit": "µg/mL"}, {"measurement": "MIC P. aeruginosa", "setting": "[2]", "value": 16, "unit": "µg/mL"}, {"measurement": "MIC S. epidermidis", "setting": "[3]", "value": 8, "unit": "µg/mL"}, {"measurement": "MIC E. faecalis", "setting": "[4]", "value": 32, "unit": "µg/mL"}, {"measurement": "MIC S. aureus", "setting": "[5]", "value": 16, "unit": "µg/mL"}, {"measurement": "Hemolysis HC50", "setting": "[6]", "value": 120, "unit": "µg/mL"}]}]}
